Structures can show the parent of a compound that is named as a salt.
Assays:
[1] = Particle size distribution, z-potential and pH of aqueous solutions of α-T3DMG with or without TCA; assay type: physicochemical
Procedure: The fitting curves were obtained by the plateau model using GraphPad Prism to indicate a smoothing curve connecting each point. The z-average with PDI and the z-potential of the aqueous solution of α-[…] with or without TCA, as described in Section 4.7.1, were determined using a Zetasizer Nano ZS (MALVERN, Worcestershire, UK). Measurements were independently performed three times for each sample. The pH of the aqueous solution of α-[…] with or without TCA is described in Section 4.7.1. It was measured using a LAQUAtwin pH-11 pocket water quality meter (HORIBA, Ltd., Kyoto, Japan).

[2] = Plasma α-T3 pharmacokinetics after gastrostomy administration in bile duct-ligated rats; assay type: in vivo, rat
Procedure: The SD rats were fasted for 16 h, and they were provided drinking water ad libitum prior to the administration of the test compounds. The rats were administered three types of mixed anesthetic agents (medetomidine, midazolam, and butorphanol) under isoflurane anesthesia. To avoid the influence of intrinsic bile flow on intestinal absorption, a catheter was inserted into the bile ducts of the rats. The catheter was ligated with strings, and intrinsic bile flow was excluded. This animal model was referred to in an animal experimental book in Japanese, titled in English as, “An atlas of experimental animal technology” published in 1998; this method is very similar to that described in Figure 5 of Jaber et al..
Dosing solutions were prepared as follows: (i) 5.88 mmol/L α-T3DMG and 5.88 mmol/L TCA in water (α-T3DMG:TCA = 1:1), (ii) 5.88 mmol/L α-T3DMG and 11.76 mmol/L TCA in water (α-T3DMG:TCA = 1:2), and (iii) 5.88 mmol/L α-T3 and 11.76 mmol/L TCA in water (α-T3:TCA = 1:2). The α-T3 was dispersed in silica powder in ethanol, and the solvent was removed in vacuo prior to dispersion in water. The ligated rats were administered […] of α-T3DMG or α-T3 via gastrostomy. The doses were 12.5 mg/kg of body weight equivalent for α-T3.
Blood samples (200 µL) were collected from the external jugular vein under isoflurane anesthesia using heparinized syringes at 0.5, 1, 2, 3, 4, 6, 8, and 24 h. […]

[3] = Distribution of α-T3DMG to n-octanol and water phases; assay type: physicochemical; settings: increasing TCA molar ratio
Procedure: The fitting curves were obtained by the plateau model using GraphPad Prism to indicate a smoothing curve connecting each point. The prepared solutions described in Section 4.7.1 were combined with the same volume of n-octanol and then vortexed for 2 min. The solutions were then centrifuged at 20,600× g for 20 min. The upper layer (n-octanol) and the lower layer (water) were collected, diluted with ethanol, and subjected to LC-MS/MS, as described in Section 4.7.

[4] = Stability in water; assay type: physicochemical
[5] = Appearance of aqueous solutions of α-T3DMG with or without TCA; assay type: physicochemical
Procedure: A stock solution of α-T3DMG was prepared in milliQ and combined with different concentrations of taurocholic acid (TCA) aqueous solution to the final molar ratios (α-T3DMG/TCA = 1/0.1–4). The fitting curves were obtained by the plateau model using GraphPad Prism to indicate a smoothing curve connecting each point.

[6] = Enzymatic hydrolysis of α-T3 esters in rat plasma; assay type: in vitro ADME; settings: pH 7.4, 37 °C, Michaelis–Menten fit
[7] = Toxicity observation in the in vivo study; settings: bile duct-ligated rats, 12.5 mg/kg α-T3 equivalent, gastrostomy
[8] = Water solubility; assay type: physicochemical; settings: distilled water, 25 ± 1 °C, shaken 3 h
Procedure: The aqueous solubility of each ester was determined by adding 50 μmol of each compound to 1 mL of distilled water in amber test tubes and incubating the tubes at 25 ± 1 °C in a constant-temperature water bath. The test tubes were shaken for 3 h, and the suspensions were filtered using a membrane filter (MF-Millipore™ Membrane Filter, 0.45 µm pore size, Merck KGaA, Darmstadt, Germany). The filtered media, including α-T3DMG, was assayed using the liquid chromatography (LC)-MS/MS method described in Section 4.8.

[9] = Effect of eserine (esterase inhibitor) on ester hydrolysis in rat liver microsomes; assay type: in vitro ADME; settings: eserine 0–2.0 mmol/L
Procedure: The effects of eserine on α-T3DMG hydrolysis in rat liver microsomes were also examined using similar methods, with 50 µL eserine aqueous solution instead of PBS, added to the mixtures with liver microsomes. Eserine was tested at 0–2.0 mmol/L.

[10] = Enzymatic hydrolysis of α-T3 esters in rat liver microsomes; assay type: in vitro ADME; settings: rat liver microsome, pH 7.4, 37 °C, Michaelis–Menten fit; for Km: liver microsomes
Procedure: The hydrolysis of esters was analyzed at 37 °C in phosphate-buffered saline (PBS) containing commercially available rat liver microsomes (In Vitro Technologies, Inc., Baltimore, MD, USA). The microsomes (20 mg/mL) were adjusted to a protein concentration of 0.11 mg/mL and preincubated at 37 °C for 5 min before adding the esters.
Stock solutions of the esters were prepared in a 5% methanol aqueous solution. Enzymatic reactions were initiated by adding 50 µL ester stock solution (final concentration 50–800 μmol/L) and 50 μL PBS to 900 µL preheated reaction medium containing rat liver microsomes in amber test tubes. These reactions were incubated at 37 °C; and, at various times, 100 μL aliquots were removed and mixed with 350 µL ethanol. Samples were then vortexed for 2 min and centrifuged at 1750 g for 5 min. The aliquot was analyzed using the LC-MS/MS system described in Section 4.8. The initial hydrolytic rate (μmol/L α-T3 formed per min) was calculated from the initial slope of the plot of α-T3 concentration versus time.

[11] = 5.88 mmol/L α-T3DMG, TCA molar ratio 0
[12] = 5.88 mmol/L α-T3DMG, TCA molar ratio 0.3
[13] = 5.88 mmol/L α-T3DMG, TCA molar ratio 0.9
[14] = 5.88 mmol/L α-T3DMG, TCA molar ratio 1
[15] = 5.88 mmol/L α-T3DMG, TCA molar ratio 1.5
[16] = 5.88 mmol/L α-T3DMG, TCA molar ratio 3
[17] = 5.88 mmol/L α-T3DMG, TCA molar ratio 4
[18] = 23.52 mmol/L α-T3DMG, TCA molar ratio 0
[19] = 23.52 mmol/L α-T3DMG, TCA molar ratio 0.3
[20] = 23.52 mmol/L α-T3DMG, TCA molar ratio 1.5
[21] = 23.52 mmol/L α-T3DMG, TCA molar ratio 3
[22] = 23.52 mmol/L α-T3DMG, TCA molar ratio 4

CNCC(=O)Oc1c(C)c(C)c2c(c1C)CC[C@@](C)(CC/C=C(\C)CC/C=C(\C)CCC=C(C)C)O2 (as salt: hydrochloride) [α-T3MG, 2R-α-Tocotrienyl N-methylglycinate]
melting point: 170 to 173 °C

C[C@H](CCC(=O)NCCS(=O)(=O)O)[C@H]1CC[C@H]2[C@@H]3[C@H](O)C[C@@H]4C[C@H](O)CC[C@]4(C)[C@H]3C[C@H](O)[C@]12C [TCA, taurocholic acid, reference compound]
z-potential ([1]; TCA without α-T3DMG in water, 23.52 mmol/L): −38.9 ± 1.9 mV

CC(C)=CCC/C(C)=C/CC/C(C)=C/CC[C@]1(C)CCc2c(C)c(O)c(C)c(C)c2O1 [α-T3, 2R-α-Tocotrienol]
plasma α-T3 levels after postprandial (TCA 1:2) administration of α-T3 compared with fasting (TCA 1:1) administration of α-T3DMG ([2]; gastrostomy, Supplementary Figure S2): similar

CC(C)=CCC/C(C)=C/CC/C(C)=C/CC[C@]1(C)CCc2c(C)c(OC(=O)CN(C)C)c(C)c(C)c2O1 [α-T3DMG, 2R-α-Tocotrienyl N,N-dimethylglycinate hydrochloride]
PDI [1, 11]: 0.542 ± 0.034 | Z-Average [1, 11]: 282.0 ± 8.9 nm | Z-Potential [1, 11]: 95.4 ± 2.5 mV | pH [1, 11]: 3.0 | PDI [1, 12]: 0.428 ± 0.014 | Z-Average [1, 12]: 12.6 ± 0.2 nm | Z-Potential [1, 12]: 48.3 ± 7.5 mV | pH [1, 12]: 3.2 | PDI [1, 13]: 0.228 ± 0.039 | Z-Average [1, 13]: 3.8 ± 1.1 nm | Z-Potential [1, 13]: 19.1 ± 12.2 mV | pH [1, 13]: 3.8 | PDI [1, 14]: 0.203 ± 0.064 | Z-Average [1, 14]: 5.3 ± 3.5 nm | Z-Potential [1, 14]: 8.70 ± 6.17 mV | pH [1, 14]: 3.8 | PDI [1, 15]: 0.161 ± 0.045 | Z-Average [1, 15]: 3.1 ± 0.0 nm | Z-Potential [1, 15]: −4.35 ± 1.99 mV | pH [1, 15]: 4.1 | PDI [1, 16]: 0.217 ± 0.009 | Z-Average [1, 16]: 4.3 ± 1.8 nm | Z-Potential [1, 16]: −0.0299 ± 0.260 mV | pH [1, 16]: 4.6 | PDI [1, 17]: 0.466 ± 0.068 | Z-Potential [1, 17]: −22.1 ± 3.37 mV | pH [1, 17]: 4.7 | Z-Average ([1]; 5.88 mmol/L α-T3DMG, TCA molar ratio 4, ambiguous data (footnote a)): 163.7 ± 84.5 ^a nm | PDI [1, 18]: 0.490 ± 0.020 | Z-Average [1, 18]: 307.8 ± 8.6 nm | pH [1, 18]: 2.7 | PDI [1, 19]: 0.336 ± 0.026 | Z-Average [1, 19]: 6.6 ± 0.1 nm | pH [1, 19]: 3.5 | pH ([1]; 23.52 mmol/L α-T3DMG, TCA molar ratio 0.9): 3.9 | PDI ([1]; 23.52 mmol/L α-T3DMG, TCA molar ratio 0.9, ambiguous data (footnote a)): 0.286 ± 0.231 ^a | Z-Average ([1]; 23.52 mmol/L α-T3DMG, TCA molar ratio 0.9, ambiguous data due to precipitation (footnote b)): 4.2 ± 0.4 ^b nm | pH ([1]; 23.52 mmol/L α-T3DMG, TCA molar ratio 1): 3.9 | PDI ([1]; 23.52 mmol/L α-T3DMG, TCA molar ratio 1, ambiguous data (footnote a)): 0.250 ± 0.179 ^a | PDI [1, 20]: 0.190 ± 0.045 | Z-Average [1, 20]: 9.2 ± 6.1 nm | pH [1, 20]: 4.4 | PDI [1, 21]: 0.219 ± 0.051 | Z-Average [1, 21]: 22.4 ± 15.1 nm | pH [1, 21]: 4.8 | PDI [1, 22]: 0.217 ± 0.005 | Z-Average [1, 22]: 23.7 ± 12.2 nm | pH [1, 22]: 4.8 | α-T3DMG levels in the n-octanol phase [3]: reached a plateau at approximately equal molar ratios of α-T3DMG and TCA | degradation in water ([4]; incubated at 5 and 20 °C for 28 days): did not exhibit any degradation | stability in water ([4]; room temperature (20 °C) for a month): stable | half-life ([4]; water, accelerated condition at 40 °C): ~27 days | appearance in water ([5]; absence of TCA, all concentrations (2.94–23.52 mmol/L)): cloudy | appearance of mixed solution ([5]; equal molar ratio of TCA versus 23.52 mmol/L α-T3DMG): white precipitation | appearance in water ([5]; presence of TCA, except 23.52 mmol/L α-T3DMG at α-T3DMG:TCA 1:0.9 and 1:1): transparent | Km [6]: 664 µM | Vmax [6]: 8.138e-08 mol/L/min | toxicity or abnormalities in rats and blood samples [7]: no toxicity or abnormalities were observed | solubility at 3 h [8]: > 50000 µM | plasma levels of α-T3DMG (ester form) relative to α-T3 ([2]; gastrostomy of α-T3DMG with TCA): 4–10% | hydrolysis in the presence of eserine [9]: completely inhibited | Km [10]: 5720 µM | Vmax [10]: 0.0001395 mol/L/min

CNCC(=O)Oc1c(C)c(C)c2c(c1C)CC[C@@](C)(CC/C=C(\C)CC/C=C(\C)CCC=C(C)C)O2 [α-T3MG, 2R-α-Tocotrienyl N-methylglycinate]
Km [6]: 1460 µM | Vmax [6]: 5.573e-07 mol/L/min | solubility at 3 h [8]: > 50000 µM | hydrolysis in the presence of eserine [9]: completely inhibited | Km [10]: 176 µM | Vmax [10]: 2.051e-06 mol/L/min

CC(C)=CCC/C(C)=C/CC/C(C)=C/CC[C@]1(C)CCc2c(C)c(OC(=O)CCC(=O)O)c(C)c(C)c2O1 [α-T3Suc, 2R-α-Tocotrienyl acid succinate]
Km [6]: 1290 µM | Vmax [6]: 1.033e-07 mol/L/min | Km [10]: 61.6 µM | Vmax [10]: 7.426e-08 mol/L/min
